Test results reported in patent US8742114B2, “Nucleic acid detections and methods of their use” (priority 2011, dated 2014).
Blank lines part the entries; values can stand above or below the compound they belong to.

How the values were obtained:
dsDNA, ssDNA, and RNA = test: Selectivity test on dsDNA, ssDNA, and RNA in TE buffer; conditions: 2 μM dye, 10 μg/mL nucleic acid, 1×TE buffer, ex 480 nm (36, 40) or 620 nm (49), FIG. 2
[1] = tested on: live and fixed HeLa cells; test: Cellular nucleic acid staining; assay type: cell-based; conditions: 1 μM in PBS buffer, 10 min, fluorescence microscopy, FIG. 5
Description: Compound 38, compound 42, and compound 61 were prepared in 1 mM stock solution in water, respectively. Each compound at 1 μM concentration in PBS buffer was incubated with live and fixed HeLa cells in 96-well plate for 10 min, respectively. The fluorescence imaging of cells was taken on a fluorescence microscopy with a 488 nm excitation laser and a 520±15 nm emission filter, as shown in FIG. 5.

DNA or RNA = test: Binding selectivity on DNA or RNA (effect of R3); conditions: R3 methyl 4-benzoate versus R3 H
nucleic acids = conditions: background; cited from earlier work
[2] = background; cited from earlier work

SMILES: COCCOCCOCCOCCN1C(N(CCC[N+](C)(C)C)CCC[N+](C)(C)C)=C/C(=C/c2sc3ccccc3[n+]2C)c2ccccc21 [Compound 40]
selectivity among dsDNA, ssDNA and RNA (fluorescence emission spectra) (dsDNA, ssDNA, and RNA): good selectivity for DNA versus RNA

live cell permeability [1]: live cell impermeant
SMILES: CC[N+](C)(CC)Cc1ccc(C2=C/C(=C/c3sc4ccccc4[n+]3C)c3ccccc3N2CCOCCOCCOCCOC)cc1 [Compound 42]

binding selectivity on DNA or RNA (DNA or RNA): high selectivity for DNA over RNA
SMILES: CN(C)CCCN(CCCN(C)C)C1=C/C(=C\C=C\c2sc3ccc(S(=O)(=O)[O-])cc3[n+]2C)c2ccccc2N1C [Compound 53]

live cell permeability [1]: live cell impermeant
SMILES: CN(C)CCCN(CCCN(C)C)C1=C/C(=C\c2sc3ccccc3[n+]2C)c2ccccc2N1CCCCCC(=O)NCCOCCO.[I-] [Compound 61]

SMILES: CCCN1C=C/C(=C\c2sc3ccccc3[n+]2C)c2ccccc21 [SYBR Safe]
detection sensitivity on nucleic acids (nucleic acids): low sensitive than desired

SMILES: CN1C(=Cc2cc[n+](C)c3ccccc23)Sc2ccccc21 [Thiazole Orange]
detection sensitivity on nucleic acids (nucleic acids): low detection sensitivity

SMILES: CC[n+]1c(-c2ccccc2)c2cc(N)ccc2c2ccc(N)cc21 [ethidium bromide, Ethidium bromide]
mutagenicity [2]: mutagenic
